The source of these data is ChEMBL document CHEMBL5252558, “Noonindoles G-L: Indole Diterpene Glycosides from the Australian Marine-Derived Fungus Aspergillus noonimiae CMB-M0339” (J Nat Prod, 2023).

Active and inactive are the calls of the source. The calls are words filed in the database; no cut-off is given here.

For assay [1], the system named is Bacillus subtilis. The experiment in a line: Antibacterial activity against Bacillus subtilis ATCC 6633 assessed as inhibition of bacterial growth incubated for 24 hrs by spectrophotometric analysis. Type of assay: functional, organism-based.
The subject of assay [2] is Candida albicans. The experiment in a line: Antifungal activity against Candida albicans ATCC 10231 assessed as inhibition of fungal growth incubated for 48 hrs by spectrophotometric analysis. Type of assay: functional, organism-based.
Assay [3] deals with Staphylococcus aureus. Nature of the assay: Antibacterial activity against Staphylococcus aureus ATCC 25923 assessed as inhibition of bacterial growth incubated for 24 hrs by spectrophotometric analysis. It counts as functional, organism-based.
The subject of assay [4] is Escherichia coli. Nature of the assay: Antibacterial activity against Escherichia coli ATCC 11775 assessed as inhibition of bacterial growth incubated for 24 hrs by spectrophotometric analysis. It counts as functional, organism-based.
The subject of assay [5] is SW-620. The experiment in a line: Cytotoxicity against human SW620 cells assessed as inhibition of cell growth incubated for 68 hrs by MTT assay. It counts as functional, cell-based. The conditions noted are these: SW-620, 68 h.
Assay [6] has as its system NCI-H460. Nature of the assay: Cytotoxicity against human NCI-H460 cells assessed as inhibition of cell growth incubated for 68 hrs by MTT assay. Type of assay: functional, cell-based. The conditions noted are these: NCI-H460, 68 h.

In the case of `CC(C)(O[C@@H]1O[C@H](CO)[C@@H](O)[C@H](O)[C@@H]1O)[C@H]1O[C@H]2CC[C@@]3(C)[C@@H](CC[C@H]4Cc5c([nH]c6ccccc56)[C@@]43C)C2=CC1=O`, the result in assay [1], in assay [2], in assay [3] and in assay [4] was inactive. The IC50 in assay [5] and in assay [6] was more than 30 µM throughout.
As for `CC(C)(O[C@@H]1O[C@H](CO)[C@@H](O)[C@H](O)[C@@H]1O)[C@@H]1CC[C@]2(C)[C@H](CC[C@@]3(C)[C@H]2CC[C@H]2Cc4c([nH]c5ccccc45)[C@@]23C)O1`, the outcome in assay [1], in assay [2], in assay [3] and in assay [4] was inactive. Further, the IC50 in assay [5] and in assay [6] was more than 30 µM throughout.
For `CC(C)(O[C@@H]1O[C@H](CO)[C@@H](O)[C@H](O)[C@@H]1O)[C@H]1O[C@H]2CC[C@@]3(C)[C@@H](CC[C@H]4Cc5c([nH]c6ccccc56)[C@@]43C)C2=C[C@H]1O`, the result in assay [1], in assay [2], in assay [3] and in assay [4] was inactive. In addition, the IC50 in assay [5] and in assay [6] was more than 30 µM in each case.
Consider `CC(C)(O[C@@H]1O[C@H](CO)[C@@H](O)[C@H](O)[C@@H]1O)[C@H]1O[C@@]2(O)CC[C@@]3(C)[C@@H](CC[C@H]4Cc5c([nH]c6ccccc56)[C@@]43C)C2=CC1=O`, for which the result in assay [1], in assay [2], in assay [3] and in assay [4] was inactive. The IC50 in assay [5] and in assay [6] was more than 30 µM each time.
As for `CC(C)(O[C@@H]1O[C@H](CO)[C@@H](O)[C@H](O)[C@@H]1O)[C@@H]1CC[C@]2(C=O)[C@H](CC[C@@]3(C)[C@H]2CC[C@H]2Cc4c([nH]c5ccccc45)[C@@]23C)O1`, the outcome in assay [1], in assay [2], in assay [3] and in assay [4] was inactive. Also, the half-inhibitory concentration (IC50) in assay [5] and in assay [6] was more than 30 µM throughout.
As to `CC(C)(O[C@@H]1O[C@H](CO)[C@@H](O)[C@H](O)[C@@H]1O)[C@@H]1CC[C@]2(CO)[C@H](CC[C@@]3(C)[C@H]2CC[C@H]2Cc4c([nH]c5ccccc45)[C@@]23C)O1`, the outcome in assay [1], in assay [2], in assay [3] and in assay [4] was inactive. The IC50 in assay [5] and in assay [6] was more than 30 µM throughout.
